Measurements as given in patent publication US6967244B1 (priority 1988, dated 2005).
Entries after “also recorded” stand apart in the source; their conditions may differ. Read-outs that look alike come from different tables or passages of the source.

Tests used:
[1] = biological target: T1, nAChR formed after the injection of alpha2 and beta2 mRNAs (Rattus norvegicus, UniProt P12389+P12390); assay type: cell-based
T1 construct: only the HYP16 clone contains an open reading frame for the entire alpha2 protein; expressed in transfected cells; host or cells: Xenopus oocytes injected with in vitro transcribed mRNA
T1 sequence (P12390 25-500): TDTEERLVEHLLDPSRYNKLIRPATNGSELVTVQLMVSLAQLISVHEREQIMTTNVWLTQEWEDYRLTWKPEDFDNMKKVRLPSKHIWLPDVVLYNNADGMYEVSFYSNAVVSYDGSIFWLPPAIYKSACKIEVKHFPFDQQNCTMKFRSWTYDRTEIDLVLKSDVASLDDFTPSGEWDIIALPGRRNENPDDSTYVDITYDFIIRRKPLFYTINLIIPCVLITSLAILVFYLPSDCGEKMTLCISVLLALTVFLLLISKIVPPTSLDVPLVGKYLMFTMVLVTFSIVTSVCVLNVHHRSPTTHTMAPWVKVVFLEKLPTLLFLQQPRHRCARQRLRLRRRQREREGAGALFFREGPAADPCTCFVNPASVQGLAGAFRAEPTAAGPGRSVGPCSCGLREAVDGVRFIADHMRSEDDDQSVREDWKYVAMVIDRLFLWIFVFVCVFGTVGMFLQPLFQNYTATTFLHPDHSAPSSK
T1 sequence (P12389 28-511): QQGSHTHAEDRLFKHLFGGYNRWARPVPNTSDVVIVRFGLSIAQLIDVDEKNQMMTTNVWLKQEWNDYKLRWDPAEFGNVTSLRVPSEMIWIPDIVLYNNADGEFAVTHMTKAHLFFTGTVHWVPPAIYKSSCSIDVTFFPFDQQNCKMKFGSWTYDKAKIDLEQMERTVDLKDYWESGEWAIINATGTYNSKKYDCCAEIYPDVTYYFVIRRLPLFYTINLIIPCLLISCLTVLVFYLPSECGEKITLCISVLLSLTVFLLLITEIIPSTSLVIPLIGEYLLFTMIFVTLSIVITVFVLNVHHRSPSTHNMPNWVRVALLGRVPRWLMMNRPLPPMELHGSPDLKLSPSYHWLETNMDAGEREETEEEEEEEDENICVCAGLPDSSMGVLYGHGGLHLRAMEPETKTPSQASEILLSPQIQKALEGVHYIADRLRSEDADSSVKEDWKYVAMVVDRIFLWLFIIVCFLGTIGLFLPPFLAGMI
Method: (§1) Mature Xenopus laevis (Xenopus I, Madison, Wis.) were used as the source of oocytes. Oocytes were treated with 1 mg/ml type II collagenase (Sigma Chemical Co., St. Louis, Mo.) for two hours at room temperature. The ovarian epithelium and follicle cells were then removed by manual dissection. Each oocyte was injected with 0.5 to 5 ng of RNA transcribed and capped with diguanosine triphosphate in vitro, in a 50 nl volume of water. Injected oocytes were incubated in Barth's saline at 20° C. prior to electrophysiological recordings.
(§2) Recordings were obtained from oocytes placed in a groove at the base of a narrow perspex chamber of 0.5 ml volume. Oocytes were perfused at up to 40 ml/min. with a control solution that consisted of 10 mM HEPES (pH 7.2), 115 mM NaCl, 1.8 mM CaCl2 2.5 mM KCl, and […] atropine. Then oocytes were perfused with agonists or antagonists (added to the control perfusing solution), followed by a wash with control solution. Voltage recordings were made with the bridge circuit of the Dagan 8500 voltage clamp unit on oocytes injected 2–7 days previously. The recordings were obtained at room temperature (20–25° C.) with micropipettes filled with 3M KCl. A resting potential more negative than −30 mV was required for inclusion of a particular oocyte in these studies.
The PCX49 clone is derived from the beta2 gene and is believed to encode a non-agonist-binding subunit. (Boulter, et al., 1987; Deneris, et al., 1988). […] We tested whether oocytes injected with either alpha2 (n=22) or beta2 (n=21) mRNA alone would produce a depolarizing response to ACh.

[2] = biological target: T2, receptor from mouse muscle alpha1, gamma, delta and beta2 mRNAs (Mus musculus, UniProt P02716+P04756+P04760); assay type: cell-based, mouse/rat
T2 construct: expressed in transfected cells; host or cells: Xenopus laevis oocytes injected with in vitro transcribed capped RNA
T2 sequence (P04760 23-519): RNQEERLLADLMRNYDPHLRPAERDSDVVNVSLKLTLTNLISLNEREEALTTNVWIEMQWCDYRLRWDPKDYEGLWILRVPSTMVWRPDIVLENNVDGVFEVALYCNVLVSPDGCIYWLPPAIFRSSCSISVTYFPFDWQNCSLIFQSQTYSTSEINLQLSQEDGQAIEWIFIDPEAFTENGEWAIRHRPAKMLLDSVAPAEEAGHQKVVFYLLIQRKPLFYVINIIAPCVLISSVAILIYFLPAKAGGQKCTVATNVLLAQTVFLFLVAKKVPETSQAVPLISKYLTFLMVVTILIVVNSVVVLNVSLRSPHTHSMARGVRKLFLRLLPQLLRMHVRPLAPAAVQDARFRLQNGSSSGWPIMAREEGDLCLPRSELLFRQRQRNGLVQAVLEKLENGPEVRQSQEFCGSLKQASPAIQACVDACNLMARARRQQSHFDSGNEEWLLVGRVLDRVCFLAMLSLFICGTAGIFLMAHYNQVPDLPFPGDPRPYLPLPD
T2 sequence (P12390 25-500, further chain): as the sequence (P12390 25-500) above
T2 sequence (P04756 21-457): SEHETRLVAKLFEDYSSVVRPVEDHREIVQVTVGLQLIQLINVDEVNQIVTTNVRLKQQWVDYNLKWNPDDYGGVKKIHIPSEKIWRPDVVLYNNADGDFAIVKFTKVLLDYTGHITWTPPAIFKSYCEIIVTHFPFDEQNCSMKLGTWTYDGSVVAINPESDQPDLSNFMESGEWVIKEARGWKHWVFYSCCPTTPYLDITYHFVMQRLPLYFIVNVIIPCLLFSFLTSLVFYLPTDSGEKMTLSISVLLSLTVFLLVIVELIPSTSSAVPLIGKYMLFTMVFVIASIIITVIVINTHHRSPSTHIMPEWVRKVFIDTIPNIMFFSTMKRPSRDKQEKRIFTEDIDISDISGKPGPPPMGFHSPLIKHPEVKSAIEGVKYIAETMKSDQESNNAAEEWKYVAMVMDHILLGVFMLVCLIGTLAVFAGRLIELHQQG
T2 sequence (P02716 25-520): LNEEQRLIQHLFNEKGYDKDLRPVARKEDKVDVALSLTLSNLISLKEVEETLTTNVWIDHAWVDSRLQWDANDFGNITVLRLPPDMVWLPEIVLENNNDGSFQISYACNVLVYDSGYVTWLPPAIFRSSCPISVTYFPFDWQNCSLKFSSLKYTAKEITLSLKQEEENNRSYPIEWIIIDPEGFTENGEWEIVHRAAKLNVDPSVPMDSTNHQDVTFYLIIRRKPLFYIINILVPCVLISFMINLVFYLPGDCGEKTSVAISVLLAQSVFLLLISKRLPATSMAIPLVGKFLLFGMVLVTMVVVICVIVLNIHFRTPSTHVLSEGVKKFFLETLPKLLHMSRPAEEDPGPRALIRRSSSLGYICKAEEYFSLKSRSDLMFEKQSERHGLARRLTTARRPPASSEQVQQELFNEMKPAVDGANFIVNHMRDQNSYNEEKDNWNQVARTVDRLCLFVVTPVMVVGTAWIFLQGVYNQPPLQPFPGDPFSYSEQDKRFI
Method: (§3) To examine this hypothesis, a test was made to determine whether the beta2 subunit could substitute for one of the mouse muscle receptor subunits. This was done by injecting into Xenopus oocytes various combinations of mRNA encoding the beta2 subunit and the muscle receptor subunits (α1, β1, […], and δ).
as §1, §2
Experiment 1: Oocytes taken from the same animal were injected at the same time with equivalent amounts of the indicated mRNA combinations. […] Values presented are means±S.E. (n=6).
Values, presented are means±S.E. (n=5). The complete set of mouse muscle mRNAs were not tested in this experiment.

[3] = biological target: T3, alpha3 + beta2 neuronal nicotinic acetylcholine receptor (Rattus norvegicus, UniProt P04757+P12390); assay type: cell-based
T3 construct: a complete signal peptide and the entire mature protein; expressed in transfected cells; host or cells: Xenopus laevis oocytes injected with in vitro transcribed capped RNA
T3 sequence (P12390 25-500): as the sequence (P12390 25-500) above
T3 sequence (P04757 26-499): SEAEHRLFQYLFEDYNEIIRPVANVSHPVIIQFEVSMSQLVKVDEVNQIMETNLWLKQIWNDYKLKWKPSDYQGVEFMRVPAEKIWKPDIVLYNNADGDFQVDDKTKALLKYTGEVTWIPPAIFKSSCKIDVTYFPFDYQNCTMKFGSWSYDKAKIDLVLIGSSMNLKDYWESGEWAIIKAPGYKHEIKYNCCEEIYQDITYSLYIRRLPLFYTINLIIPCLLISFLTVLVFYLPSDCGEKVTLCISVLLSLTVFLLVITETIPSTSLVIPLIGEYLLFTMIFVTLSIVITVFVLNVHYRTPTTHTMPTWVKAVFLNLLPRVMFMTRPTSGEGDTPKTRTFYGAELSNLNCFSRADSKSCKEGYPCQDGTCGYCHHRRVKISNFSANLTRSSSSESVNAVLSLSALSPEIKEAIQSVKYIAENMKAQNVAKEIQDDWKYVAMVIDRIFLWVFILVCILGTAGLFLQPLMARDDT

[4] = biological target: T4, alpha4 + beta2 neuronal nicotinic acetylcholine receptor (Rattus norvegicus, UniProt P09483+P12390); assay type: cell-based
T4 construct: linker-coded start (ATG and a few residues from a synthetic EcoRI/HindIII linker) (N); expressed in transfected cells; host or cells: Xenopus laevis oocytes injected with in vitro transcribed capped RNA
T4 sequence (P12390 25-500): as the sequence (P12390 25-500) above
T4 sequence (P09483 31-630): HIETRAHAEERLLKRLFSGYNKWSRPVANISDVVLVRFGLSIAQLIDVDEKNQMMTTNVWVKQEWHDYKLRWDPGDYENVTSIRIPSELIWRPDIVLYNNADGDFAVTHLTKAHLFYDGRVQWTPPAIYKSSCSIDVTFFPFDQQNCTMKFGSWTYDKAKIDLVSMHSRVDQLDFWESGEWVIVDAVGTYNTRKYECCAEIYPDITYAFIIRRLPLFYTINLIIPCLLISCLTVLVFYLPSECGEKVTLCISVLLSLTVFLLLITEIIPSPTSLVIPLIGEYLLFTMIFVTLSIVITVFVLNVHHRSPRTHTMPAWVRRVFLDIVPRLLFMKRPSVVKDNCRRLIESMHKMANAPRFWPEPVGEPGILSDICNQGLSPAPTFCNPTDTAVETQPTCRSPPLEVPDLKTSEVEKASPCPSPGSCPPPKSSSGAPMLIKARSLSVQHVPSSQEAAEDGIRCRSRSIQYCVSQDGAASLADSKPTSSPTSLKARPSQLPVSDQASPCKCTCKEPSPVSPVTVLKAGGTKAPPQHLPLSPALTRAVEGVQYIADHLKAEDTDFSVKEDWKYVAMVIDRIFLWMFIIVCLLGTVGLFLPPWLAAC

[5] = biological target: mouse muscle nicotinic acetylcholine receptor α1β1γδ (Mus musculus, UniProt P02716+P04756+P04760); assay type: cell-based
Sequence of mouse muscle nicotinic acetylcholine receptor α1β1γδ (P04760 23-519): as the sequence (P04760 23-519) above
Sequence of mouse muscle nicotinic acetylcholine receptor α1β1γδ (P09690 24-501, further chain): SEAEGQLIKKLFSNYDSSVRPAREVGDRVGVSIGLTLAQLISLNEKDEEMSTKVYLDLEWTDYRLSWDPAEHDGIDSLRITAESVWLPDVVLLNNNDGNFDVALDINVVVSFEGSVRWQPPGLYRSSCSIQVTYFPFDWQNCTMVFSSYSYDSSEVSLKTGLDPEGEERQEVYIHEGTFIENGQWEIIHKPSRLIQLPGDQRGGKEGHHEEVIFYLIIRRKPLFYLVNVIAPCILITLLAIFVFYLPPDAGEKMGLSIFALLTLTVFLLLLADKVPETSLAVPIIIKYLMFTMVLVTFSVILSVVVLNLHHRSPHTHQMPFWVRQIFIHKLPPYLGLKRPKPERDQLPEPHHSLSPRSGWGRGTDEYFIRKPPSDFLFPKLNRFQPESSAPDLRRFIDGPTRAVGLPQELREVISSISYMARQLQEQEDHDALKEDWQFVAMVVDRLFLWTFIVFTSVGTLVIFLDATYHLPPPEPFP
Sequence of mouse muscle nicotinic acetylcholine receptor α1β1γδ (P02716 25-520): as the sequence (P02716 25-520) above
Sequence of mouse muscle nicotinic acetylcholine receptor α1β1γδ (P04756 21-457): as the sequence (P04756 21-457) above
Method: as §3, §1
Recordings were obtained from oocytes placed in a groove at the base of a narrow perspex chamber of 0.5 ml volume. Oocytes were perfused at up to 40 ml/min. with a control solution that consisted of 10 mM HEPES (pH 7.2), 115 mM NaCl, 1.8 mM CaCl2 2.5 mM KCl, and […] atropine. Then oocytes were perfused with agonists or antagonists (added to the control perfusing solution), followed by a wash with control solution. Voltage recordings were made with the bridge circuit of the Dagan 8500 voltage clamp unit on oocytes injected 2–7 days previously. […]

PC12 cell receptor = biological target: T5, PC12 cell receptor (Rattus norvegicus, UniProt P04757); conditions: cited from earlier work
T5 construct: endogenous in cells; host or cells: PC12 (rat pheochromocytoma) cells
T5 sequence (P04757 26-499): as the sequence (P04757 26-499) above

In the case of COc1cc2c3cc1Oc1cc(ccc1O)C[C@@H]1c4c(cc(OC)c(O)c4Oc4ccc(cc4)C[C@@H]3N(C)CC2)CC[N+]1(C)C [d-tubocurarine], the “Blockade of the acetylcholine response by antagonist or toxin” value [1] is reported as “could be blocked”, the “Δ (mV) Agonist + Antagonist” value ([1]; Ach 5 μM + antagonist 100 μM, n=3) is reported as “+2.0 ± 0.4 mV” and the “Block of depolarizations” value ([2]; alpha1, beta2, gamma, delta mRNAs, 100 mM d-tubocurarine) is reported as “blocked”.
With CN1CCCC1c1cccnc1 (centres unmarked) [nicotine] the “Depolarizing response to nicotine” value [3] was “strong and reproducible membrane depolarizations; also recorded: depolarizing responses”, the “Depolarizing response to nicotine” value [4] was “strong and reproducible membrane depolarizations; also recorded: depolarizing responses” and the “Depolarizing response to nicotine” value [1] was “strong and reproducible depolarizing responses; also recorded: elicited a depolarizing response”. The “Depolarizations elicited by nicotine” value [2] was “depolarizations could be elicited”.
For C[N+](C)(C)CCCCCC[N+](C)(C)C [hexamethonium], the “Blockade of the acetylcholine response by antagonist or toxin” value [1] was “could be blocked” and the “Δ (mV) Agonist + Antagonist” value ([1]; Ach 1 μM + antagonist 100 μM, n=4) was “+0.4 ± 0.4 mV”.
In the case of α-bungarotoxin, the “Functional blockade of the acetylcholine response by toxin” value [3] is reported as “neither of these receptors are functionally blocked; also recorded: resistant”, the “Δ, mV After Toxin” value [3] is reported as 24.8 ± 3.3 mV and the “Functional blockade of the acetylcholine response by toxin” value [4] is reported as “resistant”. The “Δ, mV After Toxin” value [4] was 32.7 ± 6.4 mV, the “Δ, mV After Toxin” value [1] was “+32 ± 2 mV” and the “Block of the receptor by toxin” value [5] was “blocked”. The “Block of the response to acetylcholine” value [2] was “completely blocked” and the “Functional block of the receptor by toxin” value (PC12 cell receptor) was “neither of these receptors are functionally blocked”.
